Test results published in ChEMBL document CHEMBL2434921, “New synthetic aliphatic sulfonamido-quaternary ammonium salts as anticancer chemotherapeutic agents” (2013).
Active and inactive are the calls of the source. The rule behind the calls is not given here.

Key:
[1] = system: HCT-15; assay: Growth of human HCT15 cells at 0.3 uM after 48 hrs by SRB assay; details: HCT-15, 48 h
[2] = system: NUGC-3; assay: Growth of human NUGC3 cells at 1 uM after 48 hrs by SRB assay; details: NUGC-3, 48 h
[3] = system: MDA-MB-231; assay: Growth of human MDA-MB-231 cells at 3 uM after 48 hrs by SRB assay; values are per cent of control; details: MDA-MB-231, 48 h
[4] = system: ACHN; assay: Growth of human ACHN cells at 0.1 uM after 48 hrs by SRB assay
[5] = system: PC-3; assay: Growth inhibition of human PC3 cells at 1 uM after 48 hrs by SRB assay; values are per cent of control; details: PC-3, 48 h
[6] = system: NUGC-3; assay: Growth inhibition of human NUGC3 cells after 48 hrs by SRB assay; type: functional; details: NUGC-3, 48 h
[7] = system: ACHN; assay: Growth of human ACHN cells at 10 uM after 48 hrs by SRB assay
[8] = system: ACHN; assay: Growth of human ACHN cells at 0.3 uM after 48 hrs by SRB assay
[9] = system: HCT-15; assay: Growth inhibition of human HCT15 cells after 48 hrs by SRB assay; type: functional; details: HCT-15, 48 h
[10] = system: PC-3; assay: Growth of human PC3 cells at 10 uM after 48 hrs by SRB assay; details: PC-3, 48 h
[11] = biological target: Rho-related GTP-binding protein RhoB (Homo sapiens) (UniProt P62745); assay: Transactivation of RhoB (unknown origin) transfected in human HeLa cells at 5 uM measured over 10 secs by dual luciferase reporter gene assay; type: cell-based
[12] = system: MDA-MB-231; assay: Growth inhibition of human MDA-MB-231 cells after 48 hrs by SRB assay; type: functional; details: MDA-MB-231, 48 h
[13] = system: HCT-15; assay: Growth inhibition of human HCT15 cells at 10 uM after 48 hrs by SRB assay; values are per cent of control; details: HCT-15, 48 h
[14] = system: PC-3; assay: Growth inhibition of human PC3 cells at 3 uM after 48 hrs by SRB assay; values are per cent of control; details: PC-3, 48 h
[15] = system: ACHN; assay: Growth inhibition of human ACHN cells at 1 uM after 48 hrs by SRB assay; values are per cent of control
[16] = system: NUGC-3; assay: Growth inhibition of human NUGC3 cells at 10 uM after 48 hrs by SRB assay; values are per cent of control; details: NUGC-3, 48 h
[17] = system: HCT-15; assay: Growth inhibition of human HCT15 cells at 1 uM after 48 hrs by SRB assay; values are per cent of control; details: HCT-15, 48 h
[18] = system: ACHN; assay: Growth inhibition of human ACHN cells after 48 hrs by SRB assay; type: functional
[19] = system: NUGC-3; assay: Growth of human NUGC3 cells at 0.1 uM after 48 hrs by SRB assay; details: NUGC-3, 48 h
[20] = system: NCI-H23; assay: Growth inhibition of human NCI-H23 cells after 48 hrs by SRB assay; type: functional; details: NCI-H23, 48 h
[21] = system: MDA-MB-231; assay: Growth of human MDA-MB-231 cells at 10 uM after 48 hrs by SRB assay; details: MDA-MB-231, 48 h
[22] = system: NCI-H23; assay: Growth of human NCI-H23 cells at 0.3 uM after 48 hrs by SRB assay; details: NCI-H23, 48 h
[23] = system: MDA-MB-231; assay: Growth of human MDA-MB-231 cells at 1 uM after 48 hrs by SRB assay; details: MDA-MB-231, 48 h
[24] = system: MDA-MB-231; assay: Growth inhibition of human MDA-MB-231 cells at 0.3 uM after 48 hrs by SRB assay; values are per cent of control; details: MDA-MB-231, 48 h
[25] = system: ACHN; assay: Growth inhibition of human ACHN cells at 3 uM after 48 hrs by SRB assay; values are per cent of control
[26] = system: NCI-H23; assay: Growth inhibition of human NCI-H23 cells at 1 uM after 48 hrs by SRB assay; values are per cent of control; details: NCI-H23, 48 h
[27] = system: NCI-H23; assay: Growth of human NCI-H23 cells at 10 uM after 48 hrs by SRB assay; details: NCI-H23, 48 h
[28] = system: NCI-H23; assay: Growth inhibition of human NCI-H23 cells at 0.1 uM after 48 hrs by SRB assay; values are per cent of control; details: NCI-H23, 48 h
[29] = system: HCT-15; assay: Growth of human HCT15 cells at 3 uM after 48 hrs by SRB assay; details: HCT-15, 48 h
[30] = system: MDA-MB-231; assay: Growth of human MDA-MB-231 cells at 0.1 uM after 48 hrs by SRB assay; details: MDA-MB-231, 48 h
[31] = system: PC-3; assay: Growth inhibition of human PC3 cells after 48 hrs by SRB assay; type: functional; details: PC-3, 48 h
[32] = system: NCI-H23; assay: Growth inhibition of human NCI-H23 cells at 3 uM after 48 hrs by SRB assay; values are per cent of control; details: NCI-H23, 48 h
[33] = system: NUGC-3; assay: Growth inhibition of human NUGC3 cells at 3 uM after 48 hrs by SRB assay; values are per cent of control; details: NUGC-3, 48 h
[34] = system: NUGC-3; assay: Growth of human NUGC3 cells at 0.3 uM after 48 hrs by SRB assay; details: NUGC-3, 48 h
[35] = system: PC-3; assay: Growth inhibition of human PC3 cells at 0.1 uM after 48 hrs by SRB assay; values are per cent of control; details: PC-3, 48 h
[36] = system: PC-3; assay: Growth inhibition of human PC3 cells at 0.3 uM after 48 hrs by SRB assay; values are per cent of control; details: PC-3, 48 h
[37] = system: HCT-15; assay: Growth inhibition of human HCT15 cells at 0.1 uM after 48 hrs by SRB assay; values are per cent of control; details: HCT-15, 48 h

Sequence of Rho-related GTP-binding protein RhoB (Homo sapiens) (P62745 whole entry): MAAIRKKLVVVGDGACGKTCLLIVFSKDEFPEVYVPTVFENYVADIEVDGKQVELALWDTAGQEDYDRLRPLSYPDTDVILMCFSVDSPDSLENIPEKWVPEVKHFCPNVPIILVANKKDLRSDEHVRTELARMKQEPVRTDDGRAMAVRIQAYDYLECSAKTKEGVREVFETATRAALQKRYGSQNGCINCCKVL

Work on `CCCCCCCCCCCCCCS(=O)(=O)NCC(C)(C)C[N+](C)(C)C` yielded a growth, % of control at 0.3 µM [1] of 94.3%, a growth, % of control at 1 µM [2] of 35.9% and a growth, % of control at 3 µM [3] of 55.9%. The growth, % of control at 0.1 µM [4] was 91.3%, the growth, % of control at 1 µM [5] was 46% and the GI50 [6] was 320 nM. The growth, % of control at 10 µM [7] was 37.4%, the growth, % of control at 0.3 µM [8] was 84.8% and the GI50 [9] was 1700 nM. The growth, % of control at 10 µM [10] was -0.3%, the Activity [11] was “Active” and the GI50 [12] was 2110 nM. For the same compound, the growth, % of control at 10 µM [13] was 19.4%, the growth, % of control at 3 µM [14] was 9.8% and the growth, % of control at 1 µM [15] was 79.4%. It also gave a growth, % of control at 10 µM [16] of -8.2%, a growth, % of control at 1 µM [17] of 89.2% and a GI50 [18] of 2600 nM. It also gave a growth, % of control at 0.1 µM [19] of 81.8%, a GI50 [20] of 310 nM and a growth, % of control at 10 µM [21] of 31%. For the same compound, the growth, % of control at 0.3 µM [22] was 76.8%, the growth, % of control at 1 µM [23] was 77.6% and the growth, % of control at 0.3 µM [24] was 88.5%. The growth, % of control at 3 µM [25] was 57.1%, the growth, % of control at 1 µM [26] was 31.4% and the growth, % of control at 10 µM [27] was -30.5%. It also gave a growth, % of control at 0.1 µM [28] of 88.5%, a growth, % of control at 3 µM [29] of 48.2% and a growth, % of control at 0.1 µM [30] of 94.3%. The GI50 [31] was 350 nM, the growth, % of control at 3 µM [32] was 1.5% and the growth, % of control at 3 µM [33] was 8.9%. It also gave a growth, % of control at 0.3 µM [34] of 75.5%, a growth, % of control at 0.1 µM [35] of 76.1% and a growth, % of control at 0.3 µM [36] of 73.8%. It also gave a growth, % of control at 0.1 µM [37] of 98.1%.

`CCCCCCCCCCCCCCCCS(=O)(=O)NCCC[N+](C)(C)CC` showed a growth, % of control at 0.3 µM [1] of 91.7%, a growth, % of control at 1 µM [2] of 41.8% and a growth, % of control at 3 µM [3] of 39.3%. The growth, % of control at 0.1 µM [4] was 87.7%, the growth, % of control at 1 µM [5] was 56.3% and the GI50 [6] was 320 nM. It also gave a growth, % of control at 10 µM [7] of -6.7%, a growth, % of control at 0.3 µM [8] of 90.6% and a GI50 [9] of 1200 nM. For the same compound, the growth, % of control at 10 µM [10] was -32.4%, the Activity [11] was “Active” and the GI50 [12] was 910 nM. For the same compound, the growth, % of control at 10 µM [13] was 16.3%, the growth, % of control at 3 µM [14] was -11.8% and the growth, % of control at 1 µM [15] was 76.6%. The growth, % of control at 10 µM [16] was -34.3%, the growth, % of control at 1 µM [17] was 78% and the GI50 [18] was 1290 nM. It also gave a growth, % of control at 0.1 µM [19] of 74.4%, a GI50 [20] of 910 nM and a growth, % of control at 10 µM [21] of 9.2%. It also gave a growth, % of control at 0.3 µM [22] of 82.9%, a growth, % of control at 1 µM [23] of 75.5% and a growth, % of control at 0.3 µM [24] of 75.7%. The growth, % of control at 3 µM [25] was 48.4%, the growth, % of control at 1 µM [26] was 73.4% and the growth, % of control at 10 µM [27] was -21.5%. It also gave a growth, % of control at 0.1 µM [28] of 81.3%, a growth, % of control at 3 µM [29] of 35.3% and a growth, % of control at 0.1 µM [30] of 72.6%. The GI50 [31] was 560 nM, the growth, % of control at 3 µM [32] was 32.2% and the growth, % of control at 3 µM [33] was 7.5%. For the same compound, the growth, % of control at 0.3 µM [34] was 73.5%, the growth, % of control at 0.1 µM [35] was 84.1% and the growth, % of control at 0.3 µM [36] was 79.7%. The growth, % of control at 0.1 µM [37] was 90%.

`CCCCCCCCCCCCCCS(=O)(=O)N(C)CC[N+](C)(CC)CC` gave a growth, % of control at 0.3 µM [1] of 96.3%, a growth, % of control at 1 µM [2] of 45.7% and a growth, % of control at 3 µM [3] of 34.3%. The growth, % of control at 0.1 µM [4] was 100%, the growth, % of control at 1 µM [5] was 79.9% and the GI50 [6] was 520 nM. The growth, % of control at 10 µM [7] was 16.4%, the growth, % of control at 0.3 µM [8] was 102% and the GI50 [9] was 2350 nM. For the same compound, the growth, % of control at 10 µM [10] was -1.7%, the Activity [11] was “Active” and the GI50 [12] was 1220 nM. It also gave a growth, % of control at 10 µM [13] of 27%, a growth, % of control at 3 µM [14] of 10.5% and a growth, % of control at 1 µM [15] of 87.4%. It also gave a growth, % of control at 10 µM [16] of 3.1%, a growth, % of control at 1 µM [17] of 88.4% and a GI50 [18] of 1740 nM. For the same compound, the growth, % of control at 0.1 µM [19] was 98.7%, the GI50 [20] was 710 nM and the growth, % of control at 10 µM [21] was 16.5%. The growth, % of control at 0.3 µM [22] was 91%, the growth, % of control at 1 µM [23] was 81.5% and the growth, % of control at 0.3 µM [24] was 101%. For the same compound, the growth, % of control at 3 µM [25] was 51.7%, the growth, % of control at 1 µM [26] was 65.4% and the growth, % of control at 10 µM [27] was -0.5%. It also gave a growth, % of control at 0.1 µM [28] of 96.5%, a growth, % of control at 3 µM [29] of 60.5% and a growth, % of control at 0.1 µM [30] of 103%. It also gave a GI50 [31] of 820 nM, a growth, % of control at 3 µM [32] of 16.4% and a growth, % of control at 3 µM [33] of 10.6%. For the same compound, the growth, % of control at 0.3 µM [34] was 104%, the growth, % of control at 0.1 µM [35] was 114% and the growth, % of control at 0.3 µM [36] was 108%. It also gave a growth, % of control at 0.1 µM [37] of 95%.
